Measured values as given in ChEMBL document CHEMBL4706492, “[1,2,3]Triazolo[4,5-d]pyrimidine derivatives incorporating (thio)urea moiety as a novel scaffold for LSD1 inhibitors” (Eur J Med Chem, 2020).

Columns and labels:
ECa-109 cell line = experiment: cells; conditions: Homo sapiens, ECa-109, 48 h
Description: Cytotoxicity against human EC-109 cells assessed as reduction in cell viability after 48 hrs by MTT assay

MGC-803 = experiment: cells; conditions: Homo sapiens, MGC-803, 48 h
Description: Cytotoxicity against human MGC-803 cells assessed as reduction in cell viability after 48 hrs by MTT assay

PC-3 = experiment: cells; conditions: Homo sapiens, PC-3, 48 h
Description: Cytotoxicity against human PC-3 cells assessed as reduction in cell viability after 48 hrs by MTT assay

B16-F10 = experiment: cells; conditions: Mus musculus, B16-F10, 48 h
Description: Cytotoxicity against mouse B16-F10 cells assessed as reduction in cell viability after 48 hrs by MTT assay

[1] = target: T1, Lysine-specific histone demethylase 1A (Homo sapiens, UniProt O60341)
[2] = target: T1, Lysine-specific histone demethylase 1A; experiment: Inhibition of LSD1 in human MGC803 assessed as reduction in H3K4me2 protein expression incubated for 24 hrs by Western blot analysis; conditions: MGC-803, dose 10-40 µM
MAO-A = target: T2, MAO-A (Homo sapiens, UniProt P21397); experiment: Inhibition of MAO-A (unknown origin) at 20 uM relative to control
T2 sequence (P21397 whole entry): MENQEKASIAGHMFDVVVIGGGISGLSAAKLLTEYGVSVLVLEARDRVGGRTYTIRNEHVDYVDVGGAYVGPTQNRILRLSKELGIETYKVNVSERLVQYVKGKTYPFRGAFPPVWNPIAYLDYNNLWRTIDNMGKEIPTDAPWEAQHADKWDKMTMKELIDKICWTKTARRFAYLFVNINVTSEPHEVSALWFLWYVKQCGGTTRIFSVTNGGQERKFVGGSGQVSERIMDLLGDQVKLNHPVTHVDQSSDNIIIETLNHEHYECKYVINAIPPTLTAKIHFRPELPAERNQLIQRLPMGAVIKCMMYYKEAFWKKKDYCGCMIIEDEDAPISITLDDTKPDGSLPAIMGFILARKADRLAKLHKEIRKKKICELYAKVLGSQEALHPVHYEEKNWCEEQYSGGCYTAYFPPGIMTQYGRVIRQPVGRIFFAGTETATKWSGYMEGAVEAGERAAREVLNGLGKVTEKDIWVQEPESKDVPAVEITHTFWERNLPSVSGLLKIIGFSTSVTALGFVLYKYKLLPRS

MAO-B = target: T3, MAO-B (Homo sapiens, UniProt P27338); experiment: Inhibition of MAO-B (unknown origin) at 20 uM relative to control
T3 sequence (P27338 whole entry): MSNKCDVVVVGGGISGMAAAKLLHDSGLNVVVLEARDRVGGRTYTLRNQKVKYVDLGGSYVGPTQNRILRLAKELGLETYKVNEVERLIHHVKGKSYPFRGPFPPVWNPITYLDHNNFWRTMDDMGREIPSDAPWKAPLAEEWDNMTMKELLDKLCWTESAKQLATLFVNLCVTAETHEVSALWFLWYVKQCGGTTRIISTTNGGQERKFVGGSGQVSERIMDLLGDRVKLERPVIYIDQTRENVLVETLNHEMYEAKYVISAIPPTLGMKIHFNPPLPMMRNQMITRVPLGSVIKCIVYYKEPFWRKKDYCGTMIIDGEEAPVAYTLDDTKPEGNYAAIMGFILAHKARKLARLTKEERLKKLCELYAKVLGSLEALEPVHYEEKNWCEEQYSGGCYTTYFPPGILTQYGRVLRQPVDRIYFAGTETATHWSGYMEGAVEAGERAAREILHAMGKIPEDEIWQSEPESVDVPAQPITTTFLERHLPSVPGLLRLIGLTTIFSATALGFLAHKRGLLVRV

[3] = target: Cyclin-dependent kinase 1 (Homo sapiens) (UniProt P06493); experiment: Inhibition of CDK1 (unknown origin) at 20 uM relative to control
Sequence of Cyclin-dependent kinase 1 (Homo sapiens) (P06493 whole entry, looked up): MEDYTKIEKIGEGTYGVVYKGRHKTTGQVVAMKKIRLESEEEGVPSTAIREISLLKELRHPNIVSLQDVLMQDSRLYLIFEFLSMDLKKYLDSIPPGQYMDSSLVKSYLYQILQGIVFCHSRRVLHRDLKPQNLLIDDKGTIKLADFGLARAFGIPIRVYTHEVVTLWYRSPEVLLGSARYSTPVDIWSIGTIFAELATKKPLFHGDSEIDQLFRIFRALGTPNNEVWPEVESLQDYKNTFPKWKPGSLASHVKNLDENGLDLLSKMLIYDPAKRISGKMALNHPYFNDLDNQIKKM

[4] = target: Cyclin-dependent kinase 2 (Homo sapiens) (UniProt P24941); experiment: Inhibition of CDK2 (unknown origin) at 20 uM relative to control
[5] = target: Cyclin-dependent kinase 6 (Homo sapiens) (UniProt Q00534); experiment: Inhibition of CDK6 (unknown origin) at 20 uM relative to control
Sequence of Cyclin-dependent kinase 6 (Homo sapiens) (Q00534 whole entry): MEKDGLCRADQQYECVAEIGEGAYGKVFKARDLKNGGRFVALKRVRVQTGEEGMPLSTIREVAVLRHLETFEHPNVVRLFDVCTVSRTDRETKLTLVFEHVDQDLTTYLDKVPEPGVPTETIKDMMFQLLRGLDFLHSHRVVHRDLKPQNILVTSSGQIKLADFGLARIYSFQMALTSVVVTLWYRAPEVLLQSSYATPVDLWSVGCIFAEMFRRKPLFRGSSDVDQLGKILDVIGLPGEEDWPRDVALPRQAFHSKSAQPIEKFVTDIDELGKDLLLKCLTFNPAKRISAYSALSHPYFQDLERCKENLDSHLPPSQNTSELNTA

[6] = target: Tyrosine-protein kinase BTK (Homo sapiens) (UniProt Q06187); experiment: Inhibition of BTK (unknown origin) at 20 uM relative to control
Sequence of Tyrosine-protein kinase BTK (Homo sapiens) (Q06187 whole entry): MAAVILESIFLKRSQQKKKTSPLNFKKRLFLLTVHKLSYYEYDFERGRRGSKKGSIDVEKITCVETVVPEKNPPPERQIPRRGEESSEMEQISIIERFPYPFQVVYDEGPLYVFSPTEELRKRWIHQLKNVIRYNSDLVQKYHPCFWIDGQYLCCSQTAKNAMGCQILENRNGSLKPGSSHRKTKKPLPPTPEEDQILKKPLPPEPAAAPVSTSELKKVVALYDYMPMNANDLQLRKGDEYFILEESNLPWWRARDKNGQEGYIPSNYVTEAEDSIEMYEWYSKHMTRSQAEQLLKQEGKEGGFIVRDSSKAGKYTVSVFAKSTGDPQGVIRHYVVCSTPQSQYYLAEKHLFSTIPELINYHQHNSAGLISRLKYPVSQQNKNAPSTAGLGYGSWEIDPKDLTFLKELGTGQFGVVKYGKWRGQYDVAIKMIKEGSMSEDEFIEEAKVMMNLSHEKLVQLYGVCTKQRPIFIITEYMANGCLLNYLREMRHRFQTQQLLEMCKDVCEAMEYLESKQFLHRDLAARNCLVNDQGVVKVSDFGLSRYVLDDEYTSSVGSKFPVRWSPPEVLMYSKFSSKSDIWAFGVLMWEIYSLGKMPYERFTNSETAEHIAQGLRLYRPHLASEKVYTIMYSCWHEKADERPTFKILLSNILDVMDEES

[7] = target: T1, Lysine-specific histone demethylase 1A; experiment: biochemical
Description: Inhibition of recombinant human LSD1 (157 to 852 residues) expressed in Escherichia coli BL21 (DE) cells using H3K4me2 substrate incubated for 30 mins by amplex red assay

Row | SMILES | IC50 (ECa-109 cell line) [µM] | IC50 (MGC-803) [µM] | IC50 (PC-3) [µM] | IC50 (B16-F10) [µM] | Ratio IC50 [1] | inhibition [2] | inhibition at 20 µM (MAO-A) [%] | inhibition at 20 µM (MAO-B) [%] | inhibition [3] [%] | inhibition [4] [%] | inhibition [5] [%] | inhibition [6] [%] | IC50 [7] [µM]
1 | CCCSc1nc2c(nnn2CCNC(=S)NCc2ccccc2)c(=O)[nH]1 | > 64 | 46.3 | 25.5 | > 64 |  |  |  |  |  |  |  |  | 
2 | CCCSc1nc2c(nnn2CCNC(=S)Nc2ccc(OC)cc2)c(=O)[nH]1 | 19.7 | 20.7 | 15.6 | > 64 |  |  |  |  |  |  |  |  | 
3 | CCCSc1nc2c(nnn2CCNC(=S)Nc2ccccc2Cl)c(=O)[nH]1 | > 64 | 26 | 23.4 | 14.2 |  |  |  |  |  |  |  |  | 
4 | CCCSc1nc2c(nnn2CCNC(=S)Nc2cccc3ccccc23)c(=O)[nH]1 | 9.88 | 8.3 | 9.15 | 11.5 | 3 | Dose-dependent effect | 3.9 | 11.8 | < 10 | < 10 | 20 | < 10 | 9.75
